The text below walks through data of BindingDB's records for patent US8962648 (Oncotherapy Science, 2015).

The structures appear in SMILES notation.

The target in the assay is T1, Lymphokine-activated killer T-cell-originated protein kinase (Homo sapiens, UniProt Q96KB5).
T1 sequence (Q96KB5 whole entry): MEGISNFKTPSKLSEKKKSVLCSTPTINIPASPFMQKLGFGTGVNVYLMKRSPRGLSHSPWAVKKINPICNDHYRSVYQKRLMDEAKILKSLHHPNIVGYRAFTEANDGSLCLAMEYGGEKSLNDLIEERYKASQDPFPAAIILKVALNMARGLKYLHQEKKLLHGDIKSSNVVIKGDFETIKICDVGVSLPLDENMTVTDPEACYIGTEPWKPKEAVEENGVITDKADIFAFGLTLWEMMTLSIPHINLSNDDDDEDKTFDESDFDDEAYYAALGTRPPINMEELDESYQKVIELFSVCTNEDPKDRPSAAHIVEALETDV
Nature of the assay: Kinase Assay. The following applies: pH 7.4; 25 °C. On the procedure: PBK activity was determined in the presence or absence of compounds using fluorescein isothiocyanate-labeled (FITC-labeled) histone H3 peptide as a substrate. […] The serially diluted compounds, 0.8 ng/micro-L PBK (Carna Biosciences) and 100 nM FITC-labeled histone H3 peptide were reacted in a reaction buffer (20 mM HEPES, 0.01% Tween-20, 0.3 mM MgCl2, 2 mM dithiothreitol, 50 micro-M ATP, pH 7.4) at room temperature for 1 hour. The reaction was stopped by the addition of three fold assay volume of progressive binding solution. Following 0.5 hour incubation at room temperature.
For orientation: IC50 means the point on the concentration scale where inhibition reaches its midpoint. A low value points to greater potency in that assay. For the compound `COc1ccc2[nH]c(=O)c3sccc3c2c1-c1ccc(CCN)c(F)c1` [US8962648, 265], the half-maximal inhibitory concentration (IC50) was determined as 3.8 nM. In other words, the single-digit nanomolar range.
Next, `CC(C)(CN)c1ccc(-c2c(O)ccc3[nH]c(=O)c4sccc4c23)cc1F` [US8962648, 1271]: 1 nM; `CCC(N)c1ccc(-c2c(OC)ccc3[nH]c(=O)c4sccc4c23)cc1` (centres undefined) [US8962648, 337]: 5.2 nM; `O=c1[nH]c2ccc(O)c(-c3ccc(CN4CCC(O)C4)c(F)c3)c2c2ccsc12` (centres undefined) [US8962648, 278]: 0.97 nM.
In the case of `C[C@H](CN)c1ccc(-c2c(O)ccc3[nH]c(=O)c4sccc4c23)cc1` [US8962648, 1163], half-maximal inhibition (IC50) was put at 1.3 nM.
Next, `CCNCc1ccc(-c2c(O)ccc3[nH]c(=O)c4sccc4c23)cc1` [US8962648, 267]: 2 nM; `CC(c1ccc(-c2cccc3[nH]c(=O)c4sccc4c23)cc1)N(C)C` (centres undefined) [US8962648, 346]: 9.2 nM.
Next, `CCNC(C)c1ccc(-c2c(O)ccc3[nH]c(=O)c4sccc4c23)cc1` (centres undefined) [US8962648, 385]: 3.9 nM; `COc1cc(C)c2[nH]c(=O)c3sccc3c2c1-c1ccc(C2(CN)CC2)cc1` [US8962648, 1251]: 55 nM; `N#Cc1ccc2[nH]c(=O)c3sccc3c2c1-c1ccc(CN)cc1` [US8962648, 326]: 13 nM.
For `CN[C@H](C)c1ccc(-c2c(O)cc(C)c3[nH]c(=O)c4sccc4c23)cc1` [US8962648, 1262] the value was 12 nM; for `CN[C@H](C)c1ccc(-c2c(OC)cc(C)c3[nH]c(=O)c4sccc4c23)cc1` [US8962648, 1265], 67 nM.
On to `CN[C@@H](C)c1ccc(-c2c(OC)ccc3[nH]c(=O)c4sccc4c23)cc1` [US8962648, 1064], for which the concentration for half-maximal inhibition (IC50) came out at 2.5 nM. Compared with the last compound, the IC50 is about 27-fold lower.
Take `NS(=O)(=O)c1ccc(-c2c(O)ccc3[nH]c(=O)c4sccc4c23)cc1` [US8962648, 65]: 1.8 nM corresponded to half-maximal inhibition (IC50).
For `NCCc1ccc(-c2c(O)cc(Cl)c3[nH]c(=O)c4sccc4c23)cc1Cl` [US8962648, 1268] the value was 3.9 nM; for `CN(C)S(=O)(=O)c1ccc(-c2c(O)ccc3[nH]c(=O)c4sccc4c23)cc1` [US8962648, 304], 45 nM; for `COc1cc(C)c2[nH]c(=O)c3sc(F)cc3c2c1-c1ccc([C@@H](C)CN)cc1` [US8962648, 1375], 22 nM.
Regarding `CC(C)(CN)c1ccc(-c2c(O)cc(Cl)c3[nH]c(=O)c4sccc4c23)cc1` [US8962648, 1260], inhibition was half-maximal at 75 nM (IC50).
For `NCC1(c2ccc(-c3c(O)ccc4[nH]c(=O)c5sccc5c34)cc2)CC1` [US8962648, 348] the value was 1.9 nM; for `Cc1cc(O)c(-c2ccc(CCN)c(Cl)c2)c2c1[nH]c(=O)c1sccc12` [US8962648, 1264], 3 nM.
For `NCC1(c2ccc(-c3c(O)ccc4[nH]c(=O)c5sccc5c34)cc2)CCC1` [US8962648, 1300] the value was 1.7 nM.
`CC(CN)c1ccc(-c2c(O)ccc3[nH]c(=O)c4sccc4c23)cc1F` (centres undefined) [US8962648, 1174] yielded an IC50 of 1.5 nM. The IC50 values of the last two compounds are within 1.5-fold of each other.
In the case of `CS(=O)(=O)N1CCN(c2ccc(-c3c(O)ccc4[nH]c(=O)c5sccc5c34)cc2)CC1` [US8962648, 112], the IC50 came out at 12 nM.
Next, `C[C@H](N)c1ccc(-c2c(O)ccc3[nH]c(=O)c4sccc4c23)cc1` [US8962648, 233]: 0.81 nM; `CC(c1ccc(-c2c(O)c(F)c(F)c3[nH]c(=O)c4sccc4c23)cc1)N(C)C` (centres undefined) [US8962648, 341]: 34 nM.
For `CNCCc1ccc(-c2c(O)cc(Cl)c3[nH]c(=O)c4sccc4c23)cc1` [US8962648, 1165] the value was 58 nM.
Next, `CC(CN)c1ccc(-c2c(O)ccc3[nH]c(=O)c4sccc4c23)cc1Cl` (centres undefined) [US8962648, 1280]: 10 nM.
Consider `CCN(CC)C(C)c1ccc(-c2c(O)ccc3[nH]c(=O)c4sccc4c23)cc1` (centres undefined) [US8962648, 196], for which the IC50 was found to be 4.5 nM.
For `CC(C)(N)c1ccc(-c2c(O)cc(Cl)c3[nH]c(=O)c4sccc4c23)cc1` [US8962648, 334] the value was 10 nM.
